Results published in patent publication US20170008888A1 (KYORIN PHARMACEUTICAL CO., LTD., priority 2014, published 2017).
pIC50: −log10 of the molar value.

Experiments:
Format in all cases: binding
ERK5 = molecular target: T1, ERK5 (Homo sapiens, UniProt Q13164); test: Probe-based (AX9989 acyl phosphate ATP probe) kinase profiling in Jurkat lysate: ERK5; settings: for pIC50: calculated from percent inhibition of AX9989 labeling and the screening concentration, Jurkat lysate; for inhibition at 1 µM: screening concentration 1.0 μM, read-out: Kinase inhibition % at indicated screening concentration: ERK5
T1 construct: screened for activity against several kinases in Jurkat cells; endogenous in cells; host or cells: Jurkat cell lysate
Method: (§1) In this example, potency of the compounds as ERK5 inhibitors was assessed, and the compounds were screened for activity against several kinases in Jurkat cells.
(§2) Jurkat cell pellets were resuspended in four volumes of lysis buffer (50 mM HEPES pH 7.5, 150 mM NaCl, 0.1% Triton-X-100, 1% v/v phosphatase, inhibitor cocktail II [EMD/Calbiochem, #524625]), sonicated using a tip, sonicator, and Dounce homogenized. Lysate was cleared by centrifugation, at 16,000 g for 15 min., was gel filtered (BioRad 10DG) and MnCl2 was then added to a final concentration of 20 mM before treatment with the test compound and probe labeling. […] All compound treatments were performed at room temperature.
(§3) Acyl phosphate ATP probe (AX9989) labeling reactions were performed at room temperature with a final probe concentration of 5 μM after a 15 min pre-incubation of lysate with a test compound. All reactions were performed in duplicate, using 445 μl/sample at 5 mg/ml. Probe-labeled lysates were denatured and reduced (6 M urea, 10 mM DTT, 65° C., 15 min), alkylated (40 mM iodoacetamide, 37° C., 30 min, and gel filtered (Sephadex G25) into 10 mM ammonium bicarbonate, 2 M urea, 5 mM methionine. The desalted protein mixture was digested with trypsin (0.015 mg/ml) for 1 hr at 37° C., and desthiobiotinylated peptides were captured using a […] high-capacity streptavidin resin (Thermo Scientific). Captured peptides were then washed extensively using 150 μl/wash with three different wash buffers: (A) 3 times with 1% triton, 0.5% tergitol, 1 mM EDTA in PBS; (B) 18 times with PBS; and (C) 8 times with HPLC grade water. Peptides were eluted from the streptavidin beads using two 35-μL washes of a 50% CH3CN/water mixture containing 0.1% TFA at room temperature.
(§4) Kinase active site peptides were identified and quantified using LC/MS. Percent inhibition was calculated as the normalized decrease in the ESI-MS fragment intensities of probe-labeled peptides in samples incubated with the test compound compared to those without.
ERK5 IC50 values were calculated from the percent inhibition and the screening concentration.

AurB or AurC = test: Probe-based (AX9989) kinase profiling in Jurkat lysate: AurB or AurC; settings: screening concentration 1.0 μM
Method: as §1, §2, §3, §4

AMPKa1 or AMPKa2 = test: Probe-based (AX9989) kinase profiling in Jurkat lysate: AMPKa1 or AMPKa2; settings: screening concentration 1.0 μM
Method: as §1, §2, §3, §4

TAO2 = molecular target: T2, TAO2 (Homo sapiens, UniProt Q9UL54); test: Probe-based (AX9989) kinase profiling in Jurkat lysate: TAO2; settings: screening concentration 1.0 μM; read-out: Kinase inhibition % at indicated screening concentration: TAO2
T2 construct: screened for activity against several kinases in Jurkat cells; endogenous in cells; host or cells: Jurkat cell lysate
T2 sequence (Q9UL54 1-1235): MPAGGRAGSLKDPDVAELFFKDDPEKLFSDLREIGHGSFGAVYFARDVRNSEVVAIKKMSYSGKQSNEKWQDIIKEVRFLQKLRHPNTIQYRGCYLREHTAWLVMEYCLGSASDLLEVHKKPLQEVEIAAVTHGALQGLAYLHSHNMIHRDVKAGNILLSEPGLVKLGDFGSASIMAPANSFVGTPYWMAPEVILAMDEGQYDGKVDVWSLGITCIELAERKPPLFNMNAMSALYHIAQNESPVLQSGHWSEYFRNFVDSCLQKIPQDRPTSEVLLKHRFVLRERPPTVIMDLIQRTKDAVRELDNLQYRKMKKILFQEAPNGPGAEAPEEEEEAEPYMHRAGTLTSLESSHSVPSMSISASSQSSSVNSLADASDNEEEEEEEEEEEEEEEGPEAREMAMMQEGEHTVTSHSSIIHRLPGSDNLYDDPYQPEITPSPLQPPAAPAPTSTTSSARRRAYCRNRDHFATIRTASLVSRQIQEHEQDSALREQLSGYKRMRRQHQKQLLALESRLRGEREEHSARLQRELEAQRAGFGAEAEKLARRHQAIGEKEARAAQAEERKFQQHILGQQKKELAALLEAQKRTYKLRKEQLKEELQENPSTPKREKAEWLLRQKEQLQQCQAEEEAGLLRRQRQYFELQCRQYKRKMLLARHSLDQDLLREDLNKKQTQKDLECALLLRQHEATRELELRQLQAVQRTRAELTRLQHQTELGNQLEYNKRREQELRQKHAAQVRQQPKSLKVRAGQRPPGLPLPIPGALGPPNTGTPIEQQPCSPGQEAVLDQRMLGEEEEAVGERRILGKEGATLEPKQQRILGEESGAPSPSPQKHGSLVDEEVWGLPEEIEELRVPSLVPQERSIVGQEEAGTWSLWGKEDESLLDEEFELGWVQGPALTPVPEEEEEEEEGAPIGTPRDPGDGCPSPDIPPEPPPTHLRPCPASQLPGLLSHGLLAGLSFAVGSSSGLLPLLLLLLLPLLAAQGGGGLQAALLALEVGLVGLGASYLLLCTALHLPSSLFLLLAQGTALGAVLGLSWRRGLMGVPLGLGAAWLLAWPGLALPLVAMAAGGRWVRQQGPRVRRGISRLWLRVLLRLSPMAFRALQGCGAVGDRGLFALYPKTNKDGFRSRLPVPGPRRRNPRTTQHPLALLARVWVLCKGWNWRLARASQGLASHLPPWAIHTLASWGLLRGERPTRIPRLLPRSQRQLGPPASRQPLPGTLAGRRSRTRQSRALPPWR
Method: as §1, §2, §3, §4

ABL or ARG = test: Probe-based (AX9989) kinase profiling in Jurkat lysate: ABL or ARG; settings: screening concentration 1.0 μM
Method: as §1, §2, §3, §4

JAK1 = molecular target: T3, JAK1 (Homo sapiens, UniProt P23458); test: Probe-based (AX9989) kinase profiling in Jurkat lysate: JAK1; settings: screening concentration 1.0 μM; read-out: Kinase inhibition % at indicated screening concentration: JAK1
T3 construct: screened for activity against several kinases in Jurkat cells; endogenous in cells; host or cells: Jurkat cell lysate
Method: as §1, §2, §3, §4

AurA = molecular target: T4, AurA (Homo sapiens, UniProt O14965); test: Probe-based (AX9989) kinase profiling in Jurkat lysate: AurA; settings: screening concentration 1.0 μM; read-out: Kinase inhibition % at indicated screening concentration: AurA
T4 construct: screened for activity against several kinases in Jurkat cells; endogenous in cells; host or cells: Jurkat cell lysate
T4 sequence (O14965 1-403): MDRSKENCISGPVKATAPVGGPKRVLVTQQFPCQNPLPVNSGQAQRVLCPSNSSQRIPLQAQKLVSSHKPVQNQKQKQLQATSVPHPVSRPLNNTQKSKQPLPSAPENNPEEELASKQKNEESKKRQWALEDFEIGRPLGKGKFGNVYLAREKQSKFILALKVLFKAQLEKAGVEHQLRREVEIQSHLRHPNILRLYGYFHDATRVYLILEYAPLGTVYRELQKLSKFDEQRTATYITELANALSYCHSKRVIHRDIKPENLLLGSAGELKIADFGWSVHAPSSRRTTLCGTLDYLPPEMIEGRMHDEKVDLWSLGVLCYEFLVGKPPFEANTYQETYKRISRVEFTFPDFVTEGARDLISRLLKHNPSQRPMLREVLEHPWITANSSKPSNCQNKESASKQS
Method: as §1, §2, §3, §4

ACK = molecular target: T5, ACK (Homo sapiens, UniProt Q07912); test: Probe-based (AX9989) kinase profiling in Jurkat lysate: ACK; settings: screening concentration 1.0 μM; read-out: Kinase inhibition % at indicated screening concentration: ACK
T5 construct: screened for activity against several kinases in Jurkat cells; endogenous in cells; host or cells: Jurkat cell lysate
Method: as §1, §2, §3, §4

T1 sequence (Q13164 whole entry): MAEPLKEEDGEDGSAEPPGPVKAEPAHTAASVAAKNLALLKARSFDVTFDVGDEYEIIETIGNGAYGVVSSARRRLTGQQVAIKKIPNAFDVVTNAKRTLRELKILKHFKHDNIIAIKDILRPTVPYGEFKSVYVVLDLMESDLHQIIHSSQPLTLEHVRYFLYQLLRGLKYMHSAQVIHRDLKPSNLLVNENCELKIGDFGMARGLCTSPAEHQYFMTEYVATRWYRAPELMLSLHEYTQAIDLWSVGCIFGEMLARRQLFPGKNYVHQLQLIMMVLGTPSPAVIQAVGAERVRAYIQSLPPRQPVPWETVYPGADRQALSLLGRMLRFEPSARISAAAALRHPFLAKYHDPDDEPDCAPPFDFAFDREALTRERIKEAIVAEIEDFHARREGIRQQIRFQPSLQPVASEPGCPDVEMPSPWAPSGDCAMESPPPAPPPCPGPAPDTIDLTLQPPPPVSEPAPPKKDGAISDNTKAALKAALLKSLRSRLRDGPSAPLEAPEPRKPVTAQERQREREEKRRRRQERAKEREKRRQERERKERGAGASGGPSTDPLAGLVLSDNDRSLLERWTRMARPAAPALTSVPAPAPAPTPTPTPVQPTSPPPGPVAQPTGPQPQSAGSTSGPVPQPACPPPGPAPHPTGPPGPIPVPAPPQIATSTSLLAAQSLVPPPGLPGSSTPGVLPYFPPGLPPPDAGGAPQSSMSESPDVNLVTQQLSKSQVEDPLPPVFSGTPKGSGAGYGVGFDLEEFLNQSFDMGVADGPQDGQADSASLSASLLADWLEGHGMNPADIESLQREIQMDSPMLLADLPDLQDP
T5 sequence (Q07912 whole entry): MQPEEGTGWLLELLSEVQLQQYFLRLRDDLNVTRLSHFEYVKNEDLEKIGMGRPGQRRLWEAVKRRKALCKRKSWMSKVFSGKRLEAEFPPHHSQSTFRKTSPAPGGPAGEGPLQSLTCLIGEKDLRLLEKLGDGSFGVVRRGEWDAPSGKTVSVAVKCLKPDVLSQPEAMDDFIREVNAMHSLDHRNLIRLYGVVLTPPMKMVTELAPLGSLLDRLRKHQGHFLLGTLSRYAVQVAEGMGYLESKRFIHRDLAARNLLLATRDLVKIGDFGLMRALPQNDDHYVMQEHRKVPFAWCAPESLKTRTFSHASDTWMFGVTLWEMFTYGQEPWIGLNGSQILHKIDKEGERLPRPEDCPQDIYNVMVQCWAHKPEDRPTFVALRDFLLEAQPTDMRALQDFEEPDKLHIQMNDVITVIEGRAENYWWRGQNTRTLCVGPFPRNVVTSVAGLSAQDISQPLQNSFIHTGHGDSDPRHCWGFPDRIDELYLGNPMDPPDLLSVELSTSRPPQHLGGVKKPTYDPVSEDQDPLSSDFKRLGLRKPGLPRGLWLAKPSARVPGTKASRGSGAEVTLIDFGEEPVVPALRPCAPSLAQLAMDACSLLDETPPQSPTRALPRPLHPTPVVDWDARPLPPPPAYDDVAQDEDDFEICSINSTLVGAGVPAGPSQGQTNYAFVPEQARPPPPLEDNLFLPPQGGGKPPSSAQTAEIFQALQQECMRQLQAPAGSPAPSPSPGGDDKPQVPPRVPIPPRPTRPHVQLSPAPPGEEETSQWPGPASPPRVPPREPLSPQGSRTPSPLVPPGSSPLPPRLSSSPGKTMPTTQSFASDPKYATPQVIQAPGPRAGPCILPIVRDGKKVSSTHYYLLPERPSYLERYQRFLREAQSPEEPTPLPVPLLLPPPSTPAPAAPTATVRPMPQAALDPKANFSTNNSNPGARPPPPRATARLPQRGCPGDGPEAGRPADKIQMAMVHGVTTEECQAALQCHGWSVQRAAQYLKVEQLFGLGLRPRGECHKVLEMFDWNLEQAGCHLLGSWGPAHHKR
T3 sequence (P23458 whole entry): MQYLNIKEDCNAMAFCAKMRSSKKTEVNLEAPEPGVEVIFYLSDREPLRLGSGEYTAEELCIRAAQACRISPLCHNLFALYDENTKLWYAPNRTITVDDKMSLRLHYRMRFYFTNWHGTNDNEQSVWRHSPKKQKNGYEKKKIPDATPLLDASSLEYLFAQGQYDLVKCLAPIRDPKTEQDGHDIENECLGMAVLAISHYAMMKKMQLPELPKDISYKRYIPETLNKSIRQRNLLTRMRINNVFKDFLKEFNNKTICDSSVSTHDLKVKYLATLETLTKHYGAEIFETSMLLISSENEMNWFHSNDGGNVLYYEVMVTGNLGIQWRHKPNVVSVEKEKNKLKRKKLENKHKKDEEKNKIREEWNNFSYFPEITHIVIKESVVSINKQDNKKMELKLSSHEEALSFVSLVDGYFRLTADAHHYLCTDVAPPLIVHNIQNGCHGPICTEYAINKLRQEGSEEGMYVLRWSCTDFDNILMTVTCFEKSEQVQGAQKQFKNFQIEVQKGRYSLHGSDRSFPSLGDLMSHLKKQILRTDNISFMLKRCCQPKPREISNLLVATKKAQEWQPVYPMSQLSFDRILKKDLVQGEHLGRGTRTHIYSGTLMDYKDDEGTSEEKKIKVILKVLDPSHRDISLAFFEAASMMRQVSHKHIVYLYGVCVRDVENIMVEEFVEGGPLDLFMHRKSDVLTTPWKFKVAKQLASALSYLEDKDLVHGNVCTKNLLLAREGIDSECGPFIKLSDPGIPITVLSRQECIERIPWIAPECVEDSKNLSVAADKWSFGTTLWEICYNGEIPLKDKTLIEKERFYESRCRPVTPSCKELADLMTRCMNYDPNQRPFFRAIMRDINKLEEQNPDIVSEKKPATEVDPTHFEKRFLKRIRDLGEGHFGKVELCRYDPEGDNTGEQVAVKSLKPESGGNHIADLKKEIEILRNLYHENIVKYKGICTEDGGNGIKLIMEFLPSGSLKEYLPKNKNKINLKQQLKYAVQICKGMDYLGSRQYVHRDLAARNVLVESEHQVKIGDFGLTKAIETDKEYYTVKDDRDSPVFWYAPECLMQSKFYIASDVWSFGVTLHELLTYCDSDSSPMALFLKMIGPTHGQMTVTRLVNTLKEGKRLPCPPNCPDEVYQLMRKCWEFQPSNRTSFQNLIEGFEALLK

Structure (SMILES) | pIC50 (ERK5) | inhibition at 1 µM (ERK5) [%] | Kinase inhibition % at indicated screening concentration: AurB or AurC (AurB or AurC) | Kinase inhibition % at indicated screening concentration: AMPKa1 or AMPKa2 (AMPKa1 or AMPKa2) | inhibition at 1 µM (TAO2) [%] | Kinase inhibition % at indicated screening concentration: ABL or ARG (ABL or ARG) | inhibition at 1 µM (JAK1) [%] | inhibition at 1 µM (AurA) [%] | inhibition at 1 µM (ACK) [%]
CCOc1cc(C(=O)N2CCC(N3CCCC3)CC2)ccc1Nc1cc2c(cn1)N(C)C(=O)c1scnc1N2C [Compound 34] | – | > 90 | E (E is ≦35%) | E (E is ≦35%) | ≤ 35 | E (E is ≦35%) | ≤ 35 | ≤ 35 | ≤ 35
COc1ccc(C(=O)O)cc1Nc1cc2c(cn1)N(C)C(=O)c1ccccc1N2C [Compound 36] | < 6.30 | 35 to 50 | E (E is ≦35%) | E (E is ≦35%) | ≤ 35 | E (E is ≦35%) | ≤ 35 | ≤ 35 | ≤ 35
Cc1ccccc1Nc1cc2c(cn1)N(C)C(=O)c1ccccc1N2C [Compound 58] | < 6.30 | 50 to 75 | E (E is ≦35%) | E (E is ≦35%) | ≤ 35 | E (E is ≦35%) | ≤ 35 | ≤ 35 | ≤ 35
CN1C(=O)c2ccccc2N(C)c2cc(N[C@H]3CC[C@H](NC(=O)N4CCCC4)CC3)ncc21 [Compound 60] | 6.30 to 7.00 | 75 to 90 | E (E is ≦35%) | E (E is ≦35%) | ≤ 35 | E (E is ≦35%) | ≤ 35 | ≤ 35 | ≤ 35
CN(C)CCn1cc(Nc2cc3c(cn2)N(C)C(=O)c2ccccc2N3C)cn1 [Compound 77] | 6.30 to 7.00 | 75 to 90 | B (B is >75% to ≦90%) | E (E is ≦35%) | 35 to 50 | E (E is ≦35%) | ≤ 35 | 50 to 75 | ≤ 35

Other lines, results leading:

pIC50 (ERK5) | inhibition at 1 µM (ERK5) [%] | Kinase inhibition % at indicated screening concentration: AurB or AurC (AurB or AurC) | Kinase inhibition % at indicated screening concentration: AMPKa1 or AMPKa2 (AMPKa1 or AMPKa2) | inhibition at 1 µM (TAO2) [%] | Kinase inhibition % at indicated screening concentration: ABL or ARG (ABL or ARG) | inhibition at 1 µM (JAK1) [%] | inhibition at 1 µM (AurA) [%] | inhibition at 1 µM (ACK) [%] | Structure (SMILES)
6.30 to 7.00 | 75 to 90 | E (E is ≦35%) | E (E is ≦35%) | ≤ 35 | E (E is ≦35%) | ≤ 35 | ≤ 35 | ≤ 35 | Cc1nn(C)cc1Nc1cc2c(cn1)N(C)C(=O)c1ccccc1N2C [Compound 22]
6.30 to 7.00 | 50 to 75 | E (E is ≦35%) | E (E is ≦35%) | ≤ 35 | E (E is ≦35%) | ≤ 35 | ≤ 35 | ≤ 35 | Cc1cc(O)ccc1Nc1cc2c(cn1)N(C)C(=O)c1ccccc1N2C [Compound 38]
< 6.30 | ≤ 35 | E (E is ≦35%) | E (E is ≦35%) | ≤ 35 | E (E is ≦35%) | ≤ 35 | ≤ 35 | ≤ 35 | CN1C(=O)C2CCCCC2N(C)c2cc(NC3CCC(O)CC3)ncc21 (centres unmarked) [Compound 76]
